The source of these data is paper PMC9025560, “A Comparison of Evans Blue and 4-(p-Iodophenyl)butyryl Albumin Binding Moieties on an Integrin αvβ6 Binding Peptide” (Pharmaceutics, 2022).

Usually IC50 stands for the point on the concentration scale where inhibition reaches its midpoint.

Details of series [1]: method as in PMID 29653971. The following applies: clinical trials; cited from earlier work.
Another series deals with somatostatin receptor. The following applies: cited from earlier work; for Tumor accumulation: 24 h.
Series [2] deals with prostate specific membrane antigen (PSMA). The following applies: cited from earlier work.
In series [3] the test system is U87MG glioblastoma tumor model. The following applies: cited from earlier work.
For series [4], the system named is BxPC-3 xenograft tumors. More on the design: method as in PMID 34783573. The following applies: cited from earlier work.
Another series has as its system human serum protein. Also noted: method as in PMID 34783573. The following applies: either serum albumin (human); cited from earlier work.
The test system of a further series is mouse serum protein. Also noted: method as in PMID 34783573. Conditions: either serum albumin (mouse); cited from earlier work.
Series [5] addresses T1, integrin αvβ6 (Homo sapiens, UniProt P06756+P18564).
T1 construct: purchased R&D Systems
The series is described as follows: Integrin αvβ6 affinity competitive binding ELISA against biotinylated LAP. The procedure:
Affinity for the integrin αvβ6 was determined by competitive binding ELISA of [^NatCu]1 and [^NatCu]2 against biotinylated-LAP (G&P Biosciences, Santa Clara, CA, USA) as previously described to determine the half-maximum inhibitory concentration (IC50). Briefly, in a 96 well Nunc Immuno maxisorp plate, capturing anti-αv antibody (P2W7, 5 μg/mL, Abcam, MA, USA) was plated (50 μL/well) at 37 °C for 1 h, washed with PBS (3×), and blocked overnight with blocking buffer (300 μL/well, 0.5% non-fat dry milk powder (w/v), 1% Tween 20, in PBS). It was then washed with wash buffer that consisted of 2 mmol/L of Tris buffer (pH = 7.6), 150 mmol/L sodium chloride, 1 mmol/L manganese chloride, and 0.1% Tween 20 (v/v) in deionized water (3×). […] The ExtrAvidin HRP was detected with TMB One solution (50 μL/well; Promega Corp., Madison, WI, USA) for 10–15 min at room temperature. The reaction was stopped by adding 1N sulfuric acid (H2SO4, 50 μL/well; EMD, MA, USA) and the absorbance was measured in a Multiscan Ascent plate reader (Thermo Fisher, Waltham, MA, USA) at 450 nm. Half-maximal inhibitory concentration (IC50) of peptides was determined by fitting to sigmoidal dose-response model in GraphPad Prism 8.0 (GraphPad, CA, USA). […]

Series [6] has as its system BxPC-3 xenograft tumors. The series is described as follows: Biodistribution in mice bearing BxPC-3 xenograft tumors. Conditions: 4 h p.i.; for Blood uptake / Bone uptake / Brain uptake / BxPC-3 Tumor uptake / Fecal Matter radioactivity / Gall Bladder uptake / Heart uptake / Kidneys uptake / Lg. Intestines uptake / Liver uptake / Lung uptake / Muscle uptake / Pancreas uptake / Skin uptake / Sm. Intestines uptake / Spleen uptake / Stomach uptake / Urine radioactivity: i.v. In kind it is in vivo. The procedure:
All animal procedures conformed to the Animal Welfare Act and were approved by the University of California, Davis Institutional Animal Care and Use Committee. Female athymic nu/nu-nude mice (6–8 weeks old) were purchased from Charles River Laboratories (Wilmington, MA, USA) and provided food and water on an ad libitum basis. BxPC-3 xenografts were implanted according to previous methods. Briefly, BxPC-3 cells were evaluated by flow cytometry to confirm integrin αvβ6 expression levels, injected subcutaneously into the left flank [5 million in 100 μL of a 1:1 mixture of serum-free RPMI and GFR Matrigel (Corning, New York, NY, USA)], and allowed to grow for approximately 3 weeks until tumors reached a diameter of 0.5–1 cm.
For biodistribution studies the [^64Cu]1–4 (3.7–5.55 MBq) in PBS (100 μL, pH 7.2) was injected intravenously (i.v.) via catheter into the tail vein. Following a conscious uptake period, the mice were anesthetized (5% isoflurane), euthanized, and dissected ([^64Cu]1 and [^64Cu]2, n = 3/radiolabeled peptide/time point; 4, 24, and 48 h p.i.; the 72 h time point was obtained from the imaging animals after the 72 h PET/CT scans; compounds [^64Cu]3 and [^64Cu]4, n = 2/radiolabeled compound at 4 h p.i.). Tissues were rapidly collected, weighed, and radioactivity measured with a γ-counter. Decay-corrected radioactivity concentrations are expressed as the percentage of injected dose per gram of tissue (% ID/g). Data are reported as mean ± standard deviation (SD) (Figure S20, S21 and S25).

Details of series [7]: method as in PMID 23236020, PMID 28094532. The following applies: cited from earlier work.
In series [8] the target is T1, integrin αvβ6. Also noted: method as in PMID 34783573. Conditions: competitive ELISA against biotinylated LAP; read-out: IC50, integrin αvβ6 affinity; cited from earlier work.
On the set-up of series [9]: method as in PMID 32383076, PMID 24267053. The following applies: cited from earlier work.
On the set-up of series [10]: method as in PMID 26771036, PMID 26251416. Conditions: cited from earlier work.

“And” between values parts separate entries of the source, which are not always exact repeats. Equal values may be shown once. Read-outs that look alike come from different tables or passages of the source.

T1 sequence (P06756 31-992 limits assumed): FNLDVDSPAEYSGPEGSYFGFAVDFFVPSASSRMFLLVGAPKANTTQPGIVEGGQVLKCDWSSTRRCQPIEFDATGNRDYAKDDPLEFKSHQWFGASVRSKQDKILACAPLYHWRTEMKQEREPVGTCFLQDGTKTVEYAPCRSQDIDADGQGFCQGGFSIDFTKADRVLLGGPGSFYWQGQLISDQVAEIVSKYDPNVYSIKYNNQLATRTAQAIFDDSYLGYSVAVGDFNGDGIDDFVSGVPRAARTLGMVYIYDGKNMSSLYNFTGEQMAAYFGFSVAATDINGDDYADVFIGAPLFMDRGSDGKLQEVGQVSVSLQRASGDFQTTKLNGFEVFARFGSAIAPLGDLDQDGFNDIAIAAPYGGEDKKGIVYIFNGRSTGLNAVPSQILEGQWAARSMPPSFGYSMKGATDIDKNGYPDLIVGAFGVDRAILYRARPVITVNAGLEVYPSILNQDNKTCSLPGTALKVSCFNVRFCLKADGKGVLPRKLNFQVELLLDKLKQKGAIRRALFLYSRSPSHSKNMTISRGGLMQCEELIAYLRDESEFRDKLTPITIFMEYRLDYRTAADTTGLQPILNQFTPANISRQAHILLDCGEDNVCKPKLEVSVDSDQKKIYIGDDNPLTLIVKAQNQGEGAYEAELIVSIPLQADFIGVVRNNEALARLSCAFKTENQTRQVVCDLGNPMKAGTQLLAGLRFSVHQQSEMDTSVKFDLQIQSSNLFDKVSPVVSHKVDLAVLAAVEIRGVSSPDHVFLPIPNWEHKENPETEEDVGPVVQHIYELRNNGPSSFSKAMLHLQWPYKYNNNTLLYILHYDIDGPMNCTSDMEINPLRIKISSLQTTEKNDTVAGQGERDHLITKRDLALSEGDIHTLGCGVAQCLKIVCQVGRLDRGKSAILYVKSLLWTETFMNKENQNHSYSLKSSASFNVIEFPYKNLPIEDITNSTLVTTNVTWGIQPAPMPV
T1 sequence (P18564 22-707 limits assumed): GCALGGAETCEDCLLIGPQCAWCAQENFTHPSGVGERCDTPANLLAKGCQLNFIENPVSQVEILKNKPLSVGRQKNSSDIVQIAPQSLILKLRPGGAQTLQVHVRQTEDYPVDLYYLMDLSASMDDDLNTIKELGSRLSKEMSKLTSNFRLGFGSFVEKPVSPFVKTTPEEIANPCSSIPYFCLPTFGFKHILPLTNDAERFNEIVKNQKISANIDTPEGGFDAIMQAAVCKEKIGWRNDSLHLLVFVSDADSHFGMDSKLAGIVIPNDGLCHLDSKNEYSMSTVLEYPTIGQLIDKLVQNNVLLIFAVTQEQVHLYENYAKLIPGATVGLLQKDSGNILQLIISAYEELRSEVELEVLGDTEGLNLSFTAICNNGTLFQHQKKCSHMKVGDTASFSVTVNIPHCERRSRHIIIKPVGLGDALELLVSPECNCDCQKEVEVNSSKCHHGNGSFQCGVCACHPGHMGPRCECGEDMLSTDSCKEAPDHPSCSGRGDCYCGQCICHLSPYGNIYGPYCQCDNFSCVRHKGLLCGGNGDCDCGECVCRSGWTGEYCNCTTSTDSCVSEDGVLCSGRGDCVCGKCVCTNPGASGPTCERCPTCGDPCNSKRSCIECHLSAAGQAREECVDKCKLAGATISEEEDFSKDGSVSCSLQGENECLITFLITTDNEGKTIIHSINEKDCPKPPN

Regarding [^177Lu]Lu DOTA-EB-TATE, the “Fold increase in tumor dose delivery” value in series [1] was 7.9 fold. The Kidney accumulation in the series on somatostatin receptor (4 h) is on record as ~ 30 % ID/g; in the series on somatostatin receptor (72 h), ~ 15 % ID/g. Besides, the Tumor accumulation in the series on somatostatin receptor is 78.8 % ID/g.

For `O=C(O)CC[C@H](NC(=O)N[C@@H](CCCCNC(=O)[C@H](Cc1ccc2ccccc2c1)NC(=O)[C@H]1CC[C@H](CNC(=O)CN2CCN(CC(=O)O)CCN(CC(=O)O)CCN(CC(=O)O)CC2)CC1)C(=O)O)C(=O)O` [non-ABM PSMA-617], in series [2] (24 h), the Tumor accumulation is reported as 38 % ID/g.

In the case of [^64Cu]Cu NOTA-EB-cRGDfK, in series [3], the “Fold improvement in tumor accumulation vs. [64Cu]Cu NOTA-cRGDfK” value is on record as above 16 fold and the Tumor accumulation is given as 16.6 % ID/g.

Take [^64Cu]Cu DOTA-αvβ6-BP: the BxPC-3 Tumor uptake in the series on BxPC-3 xenograft tumors [4] (4 h, same BxPC-3 tumor model) is on record as 1.61 ± 0.70 % ID/g. In addition, the Kidney accumulation with BxPC-3 xenograft tumors [4] (4 h) is reported as 20.37 ± 1.67 % ID/g; with BxPC-3 xenograft tumors [4] (48 h), 6.81 ± 1.36 % ID/g. For the same molecule, the “Binding to serum albumin” value with human serum protein and in the series with mouse serum protein was below 29% each time.

In the case of [^64Cu]Cu NOTA-cRGDfK, the Tumor accumulation in series [3] is listed as below 1.1 % ID/g.

Take `Cc1cc(-c2ccc(NC(=O)[C@H](CCCCNC(=O)CCN3C(=O)CC(SCC(=O)NCC4CCC(C(=O)N[C@H](Cc5ccc6ccccc6c5)C(=O)NCCCC[C@H](NC(=O)N[C@@H](CCC(=O)O)C(=O)O)C(=O)O)CC4)C3=O)NC(=O)CN3CCN(CC(=O)O)CCN(CC(=O)O)CCN(CC(=O)O)CC3)c(C)c2)ccc1N=Nc1ccc2c(S(=O)(=O)O)cc(S(=O)(=O)O)c(N)c2c1O` (stereo partly shown) [EB-ABM PSMA-617]: the Kidney accumulation in series [2] (4 h) was above 20 % ID/g. Also, in series [2] (from 4 h to 48 h), the Tumor accumulation is 65.6–77.3 % ID/g.

As to [^177Lu]Lu DOTA-TATE, in the series with somatostatin receptor, the Tumor accumulation is given as 9.3 % ID/g.

In the case of [NatCu]Cu DOTA-EB-αvβ6-BP [[^NatCu]1], the IC50 on integrin αvβ6 [5] came to 0.014 ± 0.002 µM.

On to [NatCu]Cu DOTA-IP-αvβ6-BP [[^NatCu]2], for which, at integrin αvβ6 [5], the half-maximal inhibitory concentration (IC50) was 0.019 ± 0.005 µM.

`Cc1cc(-c2ccc(NC(=O)CCC(=O)NCCCC[C@H](NC(=O)CN3CCN(CC(=O)O)CCN(CC(=O)O)CCN(CC(=O)O)CC3)C(N)=O)c(C)c2)ccc1N=Nc1ccc2c(S(=O)(=O)O)cc(S(=O)(=O)O)c(N)c2c1O` [[^64Cu]3, [^64Cu]Cu DOTA-EB, metal not drawn]: in the series with BxPC-3 xenograft tumors [6], the Tumor-Kidney ratio amounted to 1.34 ±0.15, the “Tumor-Lg Intestines ratio” value was 1.49 ±0.68, the Tumor-Liver ratio was 1.2–1.3 and the “Tumor-Sm Intestines ratio” value was determined as 2.05 ±0.43. Besides, in the series with BxPC-3 xenograft tumors [6], the Tumor-Stomach ratio is 2.52 ±0.58, the Blood uptake is 38.9 ± 10.4 % ID/g, the Bone uptake worked out at 4.81 ± 0.79 % ID/g and the Brain uptake is 0.97 ± 0.19 % ID/g. In the series on BxPC-3 xenograft tumors [6], the “BxPC-3 Tumor uptake” value is 24.82 ± 0.90 % ID/g, the “Fecal Matter radioactivity” value came to 33.79 ± 0.90 % ID/g, the “Gall Bladder uptake” value was found to be 28.57 ± 10.67 % ID/g and the Heart uptake is 12.05 ± 2.69 % ID/g. Further, in the series on BxPC-3 xenograft tumors [6], the Kidneys uptake is reported as 18.6 ± 1.4 % ID/g, the “Lg. Intestines uptake” value is on record as 12.75 ± 0.65 % ID/g, the Liver uptake is 22.01 ± 4.74 % ID/g and the Lung uptake was 19.40 ± 1.33 % ID/g. In the series on BxPC-3 xenograft tumors [6], the Muscle uptake is 4.64 ± 1.40 % ID/g, the Pancreas uptake is on record as 6.40 ± 1.03 % ID/g, the Skin uptake was determined as 14.77 ± 1.82 % ID/g and the “Sm. Intestines uptake” value is reported as 12.45 ± 3.06 % ID/g. Also, in the series on BxPC-3 xenograft tumors [6], the Spleen uptake is listed as 8.10 ± 1.19 % ID/g, the Stomach uptake worked out at 10.16 ± 2.71 % ID/g and the Urine radioactivity was determined as 63.25 ± 27.58 % ID/g. Besides, in the series with BxPC-3 xenograft tumors [6] (listed as [64Cu]3), the Blood uptake turned out to be 38.88 ± 10.37 % ID/g, the Kidneys uptake is recorded as 18.59 ± 1.41 % ID/g, the Tumor-Blood ratio was 0.66 ±0.15 and the Tumor-Liver ratio was determined as 1.15 ±0.21. Moreover, the Tumor-Muscle ratio in the series with BxPC-3 xenograft tumors [6] (listed as [64Cu]3) amounted to 5.58 ±1.49.

As to `Nc1nc2ncc(CNc3ccc(C(=O)N[C@@H](CCC(=O)O)C(=O)O)cc3)nc2c(=O)[nH]1` [folic acid], the Kidney accumulation in series [7] (4 h) was 70 % ID/g. Moreover, in [7] (24 h p.i.), the Tumor accumulation was 7 % ID/g.

Consider DOTA-αvβ6-BP, for which, at integrin αvβ6 [8], the IC50 is 0.028 ± 0.003 µM.

As to [^18F]AlF NOTA-IP-ABM-αvβ6-BP, the “Fold lower kidney retention than [18F]AlF NOTA-A20FMDV2-peptide” value in series [9] is given as above 3.5 fold.

Take [^64Cu]Cu NOTA-EB: the Blood accumulation in series [10] (4 h) was ~ 15 % ID/g; in series [10] (1 d) it was ~ 10 % ID/g.

For the molecule `NC(=O)[C@H](CCCCNC(=O)[C@H](CC(=O)O)NC(=O)CCCNC(=O)CCCc1ccc(I)cc1)NC(=O)CN1CCN(CC(=O)O)CCN(CC(=O)O)CCN(CC(=O)O)CC1` [[^64Cu]4, [^64Cu]Cu DOTA-IP, metal not drawn], in the series with BxPC-3 xenograft tumors [6], the Tumor-Kidney ratio stood at 1.83 ±0.19, the “Tumor-Lg Intestines ratio” value is recorded as 2.83 ±0.36, the Tumor-Liver ratio is given as 1.2–1.3 and the “Tumor-Sm Intestines ratio” value was determined as 2.31 ±0.27. In the series with BxPC-3 xenograft tumors [6], the Tumor-Stomach ratio turned out to be 3.31 ±0.37, the Blood uptake is 9.5 ± 1.3 % ID/g, the Bone uptake was 1.19 ± 0.06 % ID/g and the Brain uptake amounted to 0.36 ± 0.05 % ID/g. Moreover, in the series on BxPC-3 xenograft tumors [6], the “BxPC-3 Tumor uptake” value stood at 7.99 ± 1.93 % ID/g, the “Fecal Matter radioactivity” value amounted to 2.54 ± 1.41 % ID/g, the “Gall Bladder uptake” value was determined as 10.23 ± 3.01 % ID/g and the Heart uptake was found to be 3.07 ± 0.01 % ID/g. For the same molecule, in the series on BxPC-3 xenograft tumors [6], the Kidneys uptake was 4.34 ± 0.61 % ID/g and 4.3 % ID/g; the “Lg. Intestines uptake” value is reported as 2.90 ± 1.05 % ID/g; the Liver uptake turned out to be 6.21 ± 1.51 % ID/g; the Lung uptake was determined as 5.01 ± 0.69 % ID/g. In the series on BxPC-3 xenograft tumors [6], the Muscle uptake was 1.28 ± 0.03 % ID/g, the Pancreas uptake is 1.50 ± 0.09 % ID/g, the Skin uptake came out at 4.38 ± 0.77 % ID/g and the “Sm. Intestines uptake” value was found to be 3.53 ± 1.24 % ID/g. In the series on BxPC-3 xenograft tumors [6], the Spleen uptake is listed as 2.10 ±0.24 % ID/g, the Stomach uptake amounted to 2.39 ± 0.31 % ID/g and the Urine radioactivity is reported as 72.25 ± 35.13 % ID/g. Besides, in the series with BxPC-3 xenograft tumors [6] (listed as [64Cu]4), the Blood uptake was determined as 9.51 ± 1.32 % ID/g, the Tumor-Blood ratio was 0.83 ±0.09, the Tumor-Liver ratio is reported as 1.29 ± 0.001 and the Tumor-Muscle ratio worked out at 6.25 ±1.37.
